Key:
MCF-7 cells = test: Breast Cancer Cell Viability Assay (MCF-7, CellTiter-Glo); type: cell-based; settings: 5 days' compound exposure; for IC50: Homo sapiens, MCF7, 120 h
Outline: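 MCF-7 cells, 320 per well in RPMI with 10% FBS and 20 mM HEPES, adhered overnight, then exposed 5 days to an eleven-point semilog dilution (final 0.3-0.000003 μM). CellTiter-Glo luminescence read; % viability = (sample − cell-free background)/(untreated − background) × 100.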

ER-α = target: T1, ER-α (Homo sapiens, UniProt P03372); test: Breast Cancer Cell ER-α In Cell Western Assay (SP1); type: cell-based; settings: MCF-7 cells, SP1 antibody, 4 or 24 hr post compound addition; for Emax: MCF7, read-out: ER-α In Cell Western Assay (SP1) Max Response; for DC50: read-out: ER-α In Cell Western Assay (SP1) IC50
T1 sequence (P03372 1-595): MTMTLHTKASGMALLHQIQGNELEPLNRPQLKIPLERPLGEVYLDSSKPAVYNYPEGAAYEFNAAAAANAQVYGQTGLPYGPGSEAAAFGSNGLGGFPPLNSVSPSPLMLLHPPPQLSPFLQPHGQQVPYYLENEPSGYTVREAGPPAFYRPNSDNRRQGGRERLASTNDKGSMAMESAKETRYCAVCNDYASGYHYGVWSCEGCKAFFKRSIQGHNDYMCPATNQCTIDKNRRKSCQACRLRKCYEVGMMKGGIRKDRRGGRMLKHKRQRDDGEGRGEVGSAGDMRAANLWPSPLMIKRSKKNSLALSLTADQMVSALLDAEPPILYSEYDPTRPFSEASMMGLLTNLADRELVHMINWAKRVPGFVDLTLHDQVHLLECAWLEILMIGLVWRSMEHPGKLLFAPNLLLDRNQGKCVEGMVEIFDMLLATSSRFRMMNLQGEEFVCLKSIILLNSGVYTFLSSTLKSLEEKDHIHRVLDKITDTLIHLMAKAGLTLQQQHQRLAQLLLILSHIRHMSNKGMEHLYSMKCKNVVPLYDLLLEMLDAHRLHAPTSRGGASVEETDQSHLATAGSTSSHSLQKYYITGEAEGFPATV
Outline: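 ER-α protein levels measured by in-cell western with SP1 antibody, ratioed to DRAQ5 DNA signal and given as percent of untreated controls. Compounds added at 0.3–0.000003 μM final (eleven semilog points) to adherent MCF-7 cells in stripped serum; exposure 4 or 24 h before fixation.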

Row | Compound | IC50 (MCF-7 cells) [nM] | Emax (ER-α) [%] | DC50 (ER-α) [nM] | MCF7 Viability Assay Max Response (MCF-7 cells)
1 | CC/C(=C(/c1ccc(/C=C/C(=O)O)cc1)c1ccc2[nH]ncc2c1)c1ccccc1C [Compound 9, (E)-3-(4-((E)-1-(1H-Indazol-5-yl)-2-(o-tolyl)but-1-en-1-yl)phenyl)acrylic acid] | ≤ 100 | ≥ 40 | – | ++ (++ = a single % value ≧ 40%)
2 | CC/C(=C(/c1ccc(/C=C/C(=O)O)cc1)c1ccc2[nH]ncc2c1)c1ccc(C#N)cc1C [Compound 142, (E)-3-(4-((E)-2-(4-Cyano-2-methylphenyl)-1-(1H-indazol-5-yl)but-1-en-1-yl)phenyl)acrylic acid] | ≤ 100 | ≥ 40 | – | ++ (++ = a single % value ≧ 40%)
3 | CC/C(=C(/c1ccc(/C=C/C(=O)O)cc1)c1ccc2[nH]ncc2c1)c1ccc(F)cc1C(F)(F)F [Compound 116, (E)-3-(4-((E)-2-(4-Fluoro-2-(trifluoromethyl)phenyl)-1-(1H-indazol-5-yl)but-1-en-1-yl)phenyl)acrylic acid] | ≤ 100 | ≥ 40 | ≤ 100 | ++ (++ = a single % value ≧ 40%)

Continued, in another order:

Row | IC50 (MCF-7 cells) [nM] | Emax (ER-α) [%] | DC50 (ER-α) [nM] | Compound | MCF7 Viability Assay Max Response (MCF-7 cells)
4 | ≤ 100 | ≥ 40 | ≤ 100 | O=C(O)/C=C/c1ccc(/C(=C(/CC2CC2)c2ccccc2)c2ccc3[nH]ncc3c2)cc1 [Compound 56, (E)-3-(4-((E)-3-Cyclopropyl-1-(1H-indazol-5-yl)-2-phenylprop-1-en-1-yl)phenyl)acrylic acid] | ++ (++ = a single % value ≧ 40%)
5 | ≤ 100 | ≥ 40 | ≤ 100 | O=C(O)/C=C/c1ccc(/C(=C(\c2ccccc2)C2CC2)c2ccc3[nH]ncc3c2)cc1 [Compound 24, (E)-3-(4-((E)-2-Cyclopropyl-1-(1H-indazol-5-yl)-2-phenylvinyl)phenyl)acrylic acid] | ++ (++ = a single % value ≧ 40%)
6 | > 100 | ≥ 40 | ≤ 100 | CC/C(=C(/c1ccc(/C=C/C(=O)O)cc1)c1ccc2[nH]ncc2c1)c1ccccc1O [Compound 94, (E)-3-(4-((E)-2-(2-Hydroxyphenyl)-1-(1H-indazol-5-yl)but-1-en-1-yl)phenyl)acrylic acid] | ++ (++ = a single % value ≧ 40%)
